For assay [1], the target named is T1, CaCYP51 F145L (Candida albicans, UniProt P10613, F145L).
T1 construct: made in house; host or cells: E. coli DH5α (pCWori+)
Description: CYP51 reconstitution assay. It is filed as biochemical. The conditions noted are these: for remaining activity at 4 µM: 0.25 h, 4 μM triazole, % of activity without triazole, read-out: Residual CYP51 activity (%) ± SD. The procedure: (§1) Azole antifungal agents were added in 2.5 μl dimethyl sulfoxide, followed by 10 min of incubation at 37°C prior to assay initiation with 4 mM β-NADPH-Na4. The samples were then shaken for 15 min at 37°C. Sterol metabolites were recovered by extraction with ethyl acetate, followed by derivatization with 0.1 ml N,O-bis(trimethylsilyl)trifluoroacetamide (BSTFA)–trimethylchlorosilane (TMCS) (99:1) and 0.3 ml anhydrous pyridine (2 h at 80°C), prior to analysis by gas chromatography-mass spectrometry (GC-MS) ([52]). IC50 determinations were performed in duplicate.

Assay [2] addresses T2, CaCYP51 G307S (Candida albicans, UniProt P10613, G307S).
T2 construct: made in house; host or cells: E. coli DH5α (pCWori+)
Description: CYP51 reconstitution assay. It is filed as biochemical. The conditions noted are these: for remaining activity at 4 µM: 0.25 h, 4 μM triazole, % of activity without triazole, read-out: Residual CYP51 activity (%) ± SD. The procedure: as §1

The target of assay [3] is T3, CaCYP51 G307S+G450E (Candida albicans, UniProt P10613, G307S/G450E).
T3 construct: made in house; host or cells: E. coli DH5α (pCWori+)
T3 sequence (P10613 whole entry, looked up, stated change not applied): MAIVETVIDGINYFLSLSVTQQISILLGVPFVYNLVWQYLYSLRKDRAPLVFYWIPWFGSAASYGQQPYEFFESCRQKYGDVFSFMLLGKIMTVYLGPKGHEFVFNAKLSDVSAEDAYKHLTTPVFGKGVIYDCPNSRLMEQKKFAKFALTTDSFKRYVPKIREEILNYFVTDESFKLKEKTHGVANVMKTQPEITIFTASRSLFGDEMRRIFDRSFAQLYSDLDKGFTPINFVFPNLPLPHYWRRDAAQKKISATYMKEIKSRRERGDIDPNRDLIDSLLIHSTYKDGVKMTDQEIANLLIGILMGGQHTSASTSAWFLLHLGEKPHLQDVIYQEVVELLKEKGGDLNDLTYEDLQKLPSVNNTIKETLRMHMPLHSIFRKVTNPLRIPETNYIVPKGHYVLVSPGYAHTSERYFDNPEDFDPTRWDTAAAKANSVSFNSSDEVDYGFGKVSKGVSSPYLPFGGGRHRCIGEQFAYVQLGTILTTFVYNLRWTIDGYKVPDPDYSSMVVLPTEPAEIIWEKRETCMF
Description: CYP51 reconstitution assay. It is filed as biochemical. To be noted: for remaining activity at 4 µM: 0.25 h, 4 μM triazole, % of activity without triazole, read-out: Residual CYP51 activity (%) ± SD. The procedure:
as §1

For assay [4], the target named is T4, CaCYP51 K143R (Candida albicans, UniProt P10613, K143R).
T4 construct: made in house; host or cells: E. coli DH5α (pCWori+)
T4 sequence (P10613 whole entry, looked up, stated change not applied): as above
Description: CYP51 reconstitution assay. In kind it is biochemical. To be noted: for remaining activity at 4 µM: 0.25 h, 4 μM triazole, % of activity without triazole, read-out: Residual CYP51 activity (%) ± SD. The procedure: as §1

For assay [5], the target named is T5, CaCYP51 P230L (Candida albicans, UniProt P10613, P230L).
T5 construct: made in house; host or cells: E. coli DH5α (pCWori+)
Description: CYP51 reconstitution assay. It is filed as biochemical. To be noted: for remaining activity at 4 µM: 0.25 h, 4 μM triazole, % of activity without triazole, read-out: Residual CYP51 activity (%) ± SD. The procedure: as §1

For assay [6], the target named is T6, CaCYP51 Q474K (Candida albicans, UniProt P10613, Q474K).
T6 construct: made in house; host or cells: E. coli DH5α (pCWori+)
Description: CYP51 reconstitution assay. The conditions noted are these: for remaining activity at 4 µM: 0.25 h, 4 μM triazole, % of activity without triazole, read-out: Residual CYP51 activity (%) ± SD. It is filed as biochemical. The procedure:
as §1

Assay [7] deals with T7, CaCYP51 S279F (Candida albicans, UniProt P10613, S279F).
T7 construct: made in house; host or cells: E. coli DH5α (pCWori+)
T7 sequence (P10613 whole entry, looked up, stated change not applied): as above
Description: CYP51 reconstitution assay. It is filed as biochemical. To be noted: for remaining activity at 4 µM: 0.25 h, 4 μM triazole, % of activity without triazole, read-out: Residual CYP51 activity (%) ± SD. The procedure: as §1

Assay [8] concerns the target T8, CaCYP51 V456I (Candida albicans, UniProt P10613, V456I).
T8 construct: made in house; host or cells: E. coli DH5α (pCWori+)
Description: CYP51 reconstitution assay. The conditions noted are these: for remaining activity at 4 µM: 0.25 h, 4 μM triazole, % of activity without triazole, read-out: Residual CYP51 activity (%) ± SD. It is filed as biochemical. The procedure: as §1

Assay [9] concerns the target T9, CaCYP51 V488I (Candida albicans, UniProt P10613, V488I).
T9 construct: made in house; host or cells: E. coli DH5α (pCWori+)
Description: CYP51 reconstitution assay. It is filed as biochemical. The conditions noted are these: for remaining activity at 4 µM: 0.25 h, 4 μM triazole, % of activity without triazole, read-out: Residual CYP51 activity (%) ± SD. The procedure:
as §1

In assay [10] the target is T10, CaCYP51 Y118A (Candida albicans, UniProt P10613, Y118A).
T10 construct: made in house; host or cells: E. coli DH5α (pCWori+)
T10 sequence (P10613 whole entry, looked up, stated change not applied): as above
Description: CYP51 reconstitution assay. It is filed as biochemical. To be noted: for remaining activity at 4 µM: 0.25 h, 4 μM triazole, % of activity without triazole, read-out: Residual CYP51 activity (%) ± SD. The procedure:
as §1

The target in assay [11] is T11, CaCYP51 Y132H (Candida albicans, UniProt P10613, Y132H).
T11 construct: made in house; host or cells: E. coli DH5α (pCWori+)
T11 sequence (P10613 whole entry, looked up, stated change not applied): as above
Description: CYP51 reconstitution assay. It is filed as biochemical. To be noted: for remaining activity at 4 µM: 0.25 h, 4 μM triazole, % of activity without triazole, read-out: Residual CYP51 activity (%) ± SD. The procedure:
as §1

For assay [12], the target named is T12, CaCYP51 Y132H+K143R (Candida albicans, UniProt P10613, K143R/Y132H).
T12 construct: made in house; host or cells: E. coli DH5α (pCWori+)
T12 sequence (P10613 whole entry, looked up, stated change not applied): as above
Description: CYP51 reconstitution assay. It is filed as biochemical. To be noted: for remaining activity at 4 µM: 0.25 h, 4 μM triazole, % of activity without triazole, read-out: Residual CYP51 activity (%) ± SD. The procedure: as §1

The subject of assay [13] is C. albicans SC5314 strain with CaCYP51 substitution G450E. Description: CLSI broth microdilution MIC. In kind it is cell-based. To be noted: Candida albicans, RPMI 1640, 24 h, 35°C, 50% reduction in growth. The text has this: (§2) Strains expressing seven single mutations (Y132F, K143R, F145L, S405F, G448E, G450E, G464S) and three double mutations (Y132F+K143R, Y132F+F145L, D278N+G464S) were selected from a previous study ([36]). Two additional strains expressing the Y132H and D278N CYP51 gene mutations were created utilizing the SAT1/FLP cassette described previously ([44]). […] Successful transformants were screened on yeast-peptone-dextrose agar plates containing nourseothricin and confirmed via Southern hybridization. Genomic DNA from nourseothricin-screened transformants was digested with the HindIII restriction enzyme, and the resulting DNA digests were loaded on 1% agarose gels containing ethidium bromide. Digested samples were visualized briefly under UV light after approximately 2 h of electrophoresis (120 V) to confirm appropriate band separation. Lanes containing digested DNA in the gel were transferred onto a nitrocellulose membrane via vacuum suction, and DNA was cross-linked to the membrane through UV exposure. PCR amplification of the genomic DNA from parent isolate SC5314 using primers ERG11_Probe_F (5′-[…]-3′) and ERG11_Probe_R (5′-[…]-3′) generated a 254-bp product, used as a probe for the ERG11 gene locus. The probe was labeled and prepared using an Amersham AlkPhos direct labeling and detection system (GE Life Sciences) and hybridized to the membrane through overnight incubation at 55°C. Bands containing the hybridized, alkaline phosphatase-labeled probe corresponding to either wild-type ERG11 alleles (2,678 bp) or successfully replaced alleles with the SAT1/FLP cassette included (4,318 bp) or recycled (3,119 bp) were visualized with the CDP-Star chemiluminescent detection reagent. To confirm the sequence of the replaced ERG11 allele, a DNA fragment containing the ERG11 ORF and approximately 435 bp upstream of the start codon and 229 bp downstream of the ERG11 stop codon was PCR amplified using primers CaERG11_A_(ApaI) (5′-[…]-3′) and CaERG11_E_(XhoI) (5′-[…]-3′). The resulting DNA fragment was purified and Sanger sequenced on an ABI model 3130XL genetic analyzer with the following sequencing primers: CaERG11SeqA (5′-[…]-3′), CaERG11SeqB (5′-[…]-3′), CaERG11SeqC (5′-[…]-3′), CaERG11SeqD (5′-[…]-3′), CaERG11SeqE (5′-[…]-3′), and CaERG11SeqF (5′-[…]-3′).
(§3) Azole MICs were determined using the broth microdilution method described by the Clinical Laboratory and Standards Institute ([45], [46]). […] Measurements were read visually at 24 h after incubation at 35°C for a 50% reduction in growth from that in the drug-free control wells. MIC measurements were performed in duplicate, and the MIC was reported as the higher of two values for all strains tested. In cases where the duplicate MIC values were not identical, the higher of the two MIC values is reported. […] Additionally, no MICs differed by more than 2 dilutions for a given strain and drug.
For orientation: In broth dilution the organism is exposed to a series of concentrations in liquid medium.

For assay [14], the system named is C. albicans SC5314 strain with CaCYP51 substitution Y132F+F145L. Description: CLSI broth microdilution MIC. It is filed as cell-based. To be noted: Candida albicans, RPMI 1640, 24 h, 35°C, 50% reduction in growth.
From the text: as §2, §3

Assay [15] concerns C. albicans SC5314 strain with CaCYP51 substitution Y132F+K143R. Description: CLSI broth microdilution MIC. In kind it is cell-based. The conditions noted are these: Candida albicans, RPMI 1640, 24 h, 35°C, 50% reduction in growth.
From the text: as §2, §3

Assay [16] has as its system C. albicans SC5314 strain with CaCYP51 substitution Y132F. Description: CLSI broth microdilution MIC. It is filed as cell-based. The conditions noted are these: Candida albicans, RPMI 1640, 24 h, 35°C, 50% reduction in growth.
From the text: as §2, §3

Each structure is given as a SMILES string. Converted amounts (≈) assume the structure as drawn. Where only a bound is given, the exact number is not on record here.

T8 sequence (P10613 whole entry, looked up, stated change not applied): as above
T9 sequence (P10613 whole entry, looked up, stated change not applied): as above
T2 sequence (P10613 whole entry, looked up, stated change not applied): as above

Take `CC[C@@H]([C@H](C)O)n1ncn(-c2ccc(N3CCN(c4ccc(OC[C@@H]5CO[C@@](Cn6cncn6)(c6ccc(F)cc6F)C5)cc4)CC3)cc2)c1=O` [Posaconazole, posaconazole]: the remaining activity at 4 µM in [1] was found to be 1.37 ± 1.21%; in [2], 0.71 ± 0.04%; in [3], 0.26 ± 0.11%; in assay [4] it was 13.09 ± 0.02%; in assay [5] it was 0.21 ± 0.05%; in assay [6], 3.23 ± 0.18%. The remaining activity at 4 µM in assay [7] came to 20.64 ± 0.1%; in [8] it was 6.66 ± 0.05%; in [9], 2.11 ± 0.14%; in assay [10], 0.46 ± 0.35%; in assay [11] it was 0.18 ± 0.06%; in [12], 0.74 ± 0.05%. The IC50 in assay [1] (mean ± SD, duplicate) amounted to 359 ± 18 nM; in [2] (mean ± SD, duplicate) it was 288 ± 42 nM; in assay [3] (mean ± SD, duplicate), 312 ± 15 nM; in [4] (mean ± SD, duplicate), 789 ± 3 nM; in assay [5] (mean ± SD, duplicate) it was 238 ± 2 nM; in [6] (mean ± SD, duplicate), 301 ± 17 nM. Also, the IC50 worked out at 912 ± 16 nM in assay [7] (mean ± SD, duplicate); 602 ± 17 nM in assay [8] (mean ± SD, duplicate); 481 ± 52 nM in [9] (mean ± SD, duplicate); 206 ± 4 nM in assay [10] (mean ± SD, duplicate); 195 ± 3 nM in assay [11] (mean ± SD, duplicate); 196 ± 7 nM in [12] (mean ± SD, duplicate). For the same molecule, the MIC in assay [13], in assay [14], in assay [15] and in [16] was at most 0.03 µg/mL each time.
Consider `C[C@@H](c1ncncc1F)[C@](O)(Cn1cncn1)c1ccc(F)cc1F` [Voriconazole, voriconazole], for which the remaining activity at 4 µM in [1] turned out to be 0.37 ± 0.11%; in assay [2], 0.41 ± 0.04%; in assay [3], 0.41 ± 0.1%; in [4] it was 3.12 ± 0.27%; in assay [5] it was 0.13 ± 0.12%; in [6], 0.34 ± 0.04%. Further, the remaining activity at 4 µM in assay [7] worked out at 6.15 ± 0.66%; in assay [8], 0.79 ± 0.07%; in [9] it was 0.13 ± 0.08%; in assay [10], 0.28 ± 0.04%; in assay [11], 0.33 ± 0.19%; in [12] it was 39.6 ± 8.63%. Also, the MIC in assay [13] stood at 0.5 µg/mL (≈ 1.43 µM); in [14] it was 1 µg/mL (≈ 2.86 µM); in assay [15], 1 µg/mL (≈ 2.86 µM); in assay [16], 0.5 µg/mL (≈ 1.43 µM).

In general, IC50 refers to the concentration needed to halve the response being measured. The term MIC denotes the smallest concentration in the dilution series that meets the test's criterion for growth inhibition. A high value points to weaker potency.
